In PMC8066774, “Binding and Action of Triphenylphosphonium Analog of Chloramphenicol upon the Bacterial Ribosome” (Antibiotics, 2021):

Columns and labels:
[1] = test system: E. coli BW25113 ΔtolC pDualRep2 reporter strain; test: In vivo dual-reporter (pDualrep2) assay on agar plate: Katushka2S / RFP induction and growth inhibition zone; type: cell-based; conditions: overnight 37 °C; for Induction of fluorescent reporters (Katushka2S = ribosome stalling; RFP = DNA damage/SOS response): drops of DMSO solutions (CAM-C4-TPP 20 mM, C4-TPP 20 mM, CAM 2 mM, CHL 2 mM, ERY 6.8 mM, LEV 69 nM)
From the text: Since CAM-C4-TPP is a semi-synthetic analog of the PTC-targeting antibiotic CHL, we expected that, similar to CHL, CAM-C4-TPP would also bind and act upon the bacterial ribosome inhibiting protein synthesis. However, we could not rule out the possibility that the presence of the additional TPP group could alter the intracellular target of the CAM-C4-TPP molecule. To check whether protein synthesis remains the primary target of CAM-C4-TPP action in the bacterial cells, we used an E. coli-based in vivo reporter system that is designed for screening of inhibitors targeting either DNA replication or protein synthesis.
(§1) Figure 2 CAM-C4-TPP is a potent inhibitor of protein synthesis both in vivo and in vitro. (A) In vivo testing of CAM-C4-TPP activity using E. coli BW25113 ΔtolC pDualRep2 reporter strains. The induction of the red fluorescent protein (RFP) expression (green halo around the inhibition zone) is triggered by DNA-damage, while the induction of Katushka2S protein (red halo) occurs in response to ribosome stalling. Levofloxacin (LEV), erythromycin (ERY), and chloramphenicol (CHL) are used as controls. This image is an overlay of the two images from the independent detections of RFP (Cy3 mode) or Ktushka2S (Cy5 mode) by ChemiDoc MP (Bio-Rad) with RFP fluorescence shown in green pseudocolor and Katushka2S fluorescence shown in red pseudocolor. (B,C) Competition-binding assay to test the displacement of fluorescently labeled BODIPY-CAM (B) or BODIPY-ERY (C) analogs from the E. coli 70S ribosomes in the presence of increasing concentrations of CAM (open diamonds), CHL (blue squares), or CAM-C4-TPP (red circles) measured by fluorescence anisotropy. All reactions were repeated three times. Error bars represent standard deviation. ND, no displacement. The resulting values for apparent dissociation constants (KDapp) are shown on each plot. (D) Inhibition of protein synthesis by increasing concentrations of CHL (blue squares) or CAM-C4-TPP (red circles) in the in vitro cell-free transcription-translation coupled system. The relative enzymatic activity of in vitro synthesized firefly luciferase is shown. Error-bars represent standard deviations of the mean of three independent measurements. TEXT PRINTED IN THE PICTURE: (D) CHL: IC50, μM: 2.8±0.5 | (D) CAM-C4-TPP: IC50, μM: 0.9±0.2 | (B) CAM: KDApp, μM: 420±240 | (B) CHL: KDApp, μM: 2.6±1.5 | (B) CAM-C4-TPP: KDApp, μM: 0.6±0.4 | (C) CAM: KDApp, μM: ND | (C) CHL: KDApp, μM: 2.8±0.5 | (C) CAM-C4-TPP: KDApp, μM: 0.61±0.07
For the in vivo bioactivity test (Figure 2A), we used the reporter strain BW25113ΔtolC-pDualrep2 as described previously. Briefly, 1.5 µL of the solutions of CAM-C4-TPP (20 mM), C4-TPP (20 mM), CAM (2 mM), and 1 µL of the solutions of CHL (2 mM), erythromycin (ERY, 6.8 mM), and levofloxacin (LEV, 69 nM) in DMSO were applied onto the agar plate that already contained a lawn of the reporter strain. After overnight incubation at 37 °C, the plate was scanned by ChemiDoc (Bio-Rad, USA) using “Cy3-blot” mode for RFP fluorescence and “Cy5-blot” mode for Katushka2S fluorescence.

[2] = test system: E. coli 70S ribosomes; test: Competition-binding assay, displacement of BODIPY-CAM measured by fluorescence anisotropy; conditions: for Kd: BODIPY-CAM 30 nM, ribosomes 2.9 µM, 25 °C, pH 7.5, n=3, read-out: Apparent dissociation constant KDapp, displacement of BODIPY-CAM
From the text: (§2) Figure 2 CAM-C4-TPP is a potent inhibitor of protein synthesis both in vivo and in vitro. (A) In vivo testing of CAM-C4-TPP activity using E. coli BW25113 ΔtolC pDualRep2 reporter strains. The induction of the red fluorescent protein (RFP) expression (green halo around the inhibition zone) is triggered by DNA-damage, while the induction of Katushka2S protein (red halo) occurs in response to ribosome stalling. Levofloxacin (LEV), erythromycin (ERY), and chloramphenicol (CHL) are used as controls. This image is an overlay of the two images from the independent detections of RFP (Cy3 mode) or Ktushka2S (Cy5 mode) by ChemiDoc MP (Bio-Rad) with RFP fluorescence shown in green pseudocolor and Katushka2S fluorescence shown in red pseudocolor. (B,C) Competition-binding assay to test the displacement of fluorescently labeled BODIPY-CAM (B) or BODIPY-ERY (C) analogs from the E. coli 70S ribosomes in the presence of increasing concentrations of CAM (open diamonds), CHL (blue squares), or CAM-C4-TPP (red circles) measured by fluorescence anisotropy. […]
The amphenicol moieties of CAM-C4-TPP, its parent CHL, and the fluorescent derivative BODIPY-CAM are expected to have identical ribosome binding sites and, therefore, these compounds are expected to compete with each other for binding to the ribosome. […] The apparent dissociation constants KDapp of CHL determined from the displacement of BODIPY-CAM (2.6 ± 1.5 µM) or BODIPY-ERY (2.8 ± 0.5 µM) are consistent with each other and with the previously published data, including data determined by direct [^14C]-CHL binding (2.3 µM [30]). […]
(§3) Binding affinities of CHL analog CAM-C4-TPP, as well as other tested compounds, for the E. coli ribosome (Figure 2B,C) were analyzed by a competition-binding assay using fluorescently labeled BODIPY-CAM or BODIPY-ERY as described before. […]
Solutions of CHL, CAM, CAM-C4-TPP, or C4-TPP in different concentration ranges were added to the pre-formed ribosome/BODIPY-CAM or ribosome/BODIPY-ERY complexes. The mixtures were incubated for 2 h until equilibrium was reached and the values of fluorescence anisotropy were measured. […]

[3] = test system: E. coli 70S ribosomes; test: Competition-binding assay, displacement of BODIPY-ERY measured by fluorescence anisotropy; conditions: BODIPY-ERY 16 nM, ribosomes 50 nM, 25 °C, pH 7.5, n=3; read-out: Apparent dissociation constant KDapp, displacement of BODIPY-ERY
From the text: as §2, with “anisotropy. All reactions were repeated three times. Error bars represent standard deviation. ND, no displacement.” for “anisotropy.”
as §3

[4] = test system: ribosome stalling on rst1 and rst2 mRNAs; test: Toe-printing (primer extension inhibition) on rst1 and rst2 mRNAs in a cell-free translation system; type: biochemical; conditions: 30 µM compound
From the text: The inhibition of protein synthesis by the PTC-targeting antibiotics depends on the amino-acid sequence of the nascent polypeptide chain and the identity of the incoming aminoacyl-tRNA in the A site of the ribosome. For example, CHL arrests translation only when alanine, and to a lesser extent, serine or threonine appear in the penultimate position (E site) of the growing polypeptide chain and only if there is no glycyl-tRNA in the A site of the ribosome. […] This method allows unambiguous identification of the drug-induced ribosome stalling site along the mRNA with a single nucleotide precision. This technique also allows for the determination of the context-specificity of drug action. A large set of ribosome-targeting antibiotics has been previously tested by toe-printing using rst1 or rst2 mRNAs as templates, because their sequences contain codons for almost all proteinogenic amino acids. Therefore, in order to be able to directly compare our results for CAM-C4-TPP with those for other antibiotics, we have chosen exactly the same experimental system.
Nevertheless, in the presence of CAM-C4-TPP, a fraction of ribosomes manages to escape the start codon, continues translation, and stalls at later codons within the ORF (Figure 6A,B, lanes 3 and 6).
Figure 6 CAM-C4-TPP is capable of arresting translation at the start codon. […]

[5] = test system: cell-free transcription-translation system based on the E. coli S30 extract; test: In vitro cell-free transcription-translation inhibition assay, firefly luciferase synthesis; type: biochemical; conditions: for IC50 / Concentration at which nearly complete inhibition of protein synthesis was observed: E. coli S30 extract; for IC50: 37 °C, 30 min, n=3; for Concentration at which nearly complete inhibition of protein synthesis was observed: firefly luciferase
From the text: as §1
To check whether the improved binding of CAM-C4-TPP to the ribosome correlates with stronger inhibition of translation, we tested its ability to interfere with in vitro protein synthesis. […] Thus, CAM-C4-TPP provides a promising foundation for future ribosome-targeting drug development.
In vitro assessment of inhibition of synthesis of firefly luciferase by the tested compounds (Figure 2D) was accomplished as described previously. Briefly, the in vitro transcribed firefly luciferase mRNA was translated using E. coli S30 Extract System for Linear Templates (Promega, USA). Reactions containing 100 ng of mRNA and […] 0.1 mM of D-luciferin from the Steady-Glo Luciferase Assay System (Promega) were preincubated for 5 min with different concentrations (0.5 µM, 1 µM, 5 µM, 10 µM, 30 µM, 50 µM, 100 µM) of the tested compounds and carried out in 5-µL aliquots at 37 °C for 30 min. The activity of in vitro synthesized luciferase was measured by VICTOR X5 Multilabel Plate Reader (Perkin Elmer, USA) every 30 s. Calculations of the IC50 values for the tested compounds were carried out using GraphPad Prism software.

[6] = biological target: ribosome; parameters: method as in PMID 4563072; conditions: read-out: Dissociation constant by direct [14C]-CHL binding; cited from earlier work
[7] = test system: E. coli 70S ribosomes; test: Direct equilibrium binding of BODIPY-CAM measured by fluorescence anisotropy; conditions: BODIPY-CAM 4 nM, ribosomes 5 nM to 5 µM, 30 min; read-out: Apparent dissociation constant KDapp, direct equilibrium binding
Method: The apparent dissociation constant of BODIPY-CAM (KDapp = 3.5 ± 0.9 µM) was determined by its direct equilibrium binding to E. coli 70S ribosomes (Figure S1B). A solution of BODIPY-CAM (4 nM) in the buffer containing 20 mM HEPES-KOH (pH 7.5), 50 mM NH4Cl, 10 mM Mg(CH3COO)2, 4 mM β-mercaptoethanol, and 0.05% Tween-20 was mixed with ribosomes in the range of concentrations from 5 nM to 5 μM, incubated for 30 min, and the values of fluorescence anisotropy were measured.
Chen C.- W. et al. Supplementary Inform ation P age | 6of 10 […]
Fi g u re S1. Binding of BODIPY-CAM to E. coli 70S ribosomes measu re d b y f lu orescence an isot rop y.
(A) Chemical structure of fluorescent analog of chloramphenicol BODIPY-CAM. (B) Equilibrium binding isotherm of BODIPY-CAM to E. coli 70S ribosomes.Non -linear regression anal ysis of obt ained data yi elded an apparent dissociation constant of BO D IP Y -CAM ( KDapp = 3.5 ± 0.9 µM).
(1 picture or pasted object on this page, not shown here)

| Structure (SMILES) | Induction of fluorescent reporters (Katushka2S = ribosome stalling; RFP = DNA damage/SOS response) [1] | Kd [2] [nM] | Kd [3] [nM] | Drug-induced ribosome stalling sites (toe-printing) [4] | IC50 [5] [nM] | Concentration at which nearly complete inhibition of protein synthesis was observed [5] | also measured |
| --- | --- | --- | --- | --- | --- | --- | --- |
| CC[C@H]1OC(=O)[C@H](C)[C@@H](O[C@H]2C[C@@](C)(OC)[C@@H](O)[C@H](C)O2)[C@H](C)[C@@H](O[C@@H]2O[C@H](C)C[C@H](N(C)C)[C@H]2O)[C@](C)(O)C[C@@H](C)C(=O)[C@H](C)[C@@H](O)[C@]1(C)O [erythromycin] | induce expression of far-red fluorescent protein reporter Katushka2S | – | – | – | – | – | – |
| C[C@H]1COc2c(N3CCN(C)CC3)c(F)cc3c(=O)c(C(=O)O)cn1c23 [levofloxacin] | induce expression of Red Fluorescent Protein (RFP) reporter | – | – | – | – | – | – |
| O=C(O)CCCC[P+](c1ccccc1)(c1ccccc1)c1ccccc1.[Br-] [C4-TPP, (4-Carboxybutyl)triphenyl-phosphonium bromide] | does not induce any of the two reporters | – | – | – | – | – | Bacterial cell growth inhibition (inhibition zone) ([1]; 1.5 µL of C4-TPP 20 mM or CAM 2 mM): inhibits bacterial cell growth |
| O=C(N[C@H](CO)[C@H](O)c1ccc([N+](=O)[O-])cc1)C(Cl)Cl [CHL, chloramphenicol] | induce expression of far-red fluorescent protein reporter Katushka2S | 2600 ± 1500 | 2800 ± 500 | predominant ribosome stalling when the 6th serine (Ser6) or 4th alanine (Ala4) residues appeared in the penultimate position | 2800 ± 500 | ~ 10 µM | Kd [6]: 2300 nM |
| O=C(CCCC[P+](c1ccccc1)(c1ccccc1)c1ccccc1)N[C@H](CO)[C@H](O)c1ccc([N+](=O)[O-])cc1 [CAM-C4-TPP] | the expression of the fluorescent protein Katushka2S, but not of RFP, was strongly activated | 600 ± 400 | 610 ± 70 | causes a significant portion of the ribosomes to stall at the initiator codons | 900 ± 200 | ~ 10 µM | Fold higher affinity for the ribosome compared to parent CHL ([2]; both displacement assays (BODIPY-CAM and BODIPY-ERY)): ~ 5 fold; Fold better IC50 compared to CHL ([5]; in vitro translation of firefly luciferase): more than 3 fold |
| CC1=CC(C)=[N+]2C1=Cc1ccc(CCCCC(=O)NC(CO)C(O)c3ccc([N+](=O)[O-])cc3)n1[B-]2(F)F (centres unmarked) [BODIPY-CAM] | – | – | – | – | – | – | Kd [7]: 3500 ± 900 nM |
